For 22 molecules, EC50 results are on record in patent US10189816B2, “Substituted pyridines as inhibitors of human immunodeficiency virus replication” (priority 2015, dated 2019).

The test system of this assay is NL-RLuc virus. Put plainly: Inhibition of HIV replication (NL-RLuc reporter virus in MT-2 cells, luciferase readout). It counts as cell-based. The conditions noted are these: Human immunodeficiency virus 1, MT2, 120 h. The gist of the method:
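MT-2 cells infected with NL4-3-derived NL-RLuc reporter virus (Renilla luciferase replacing part of nef) with serial compound dilutions, RPMI 1640 + 10% FBS; 5 days. Growth by luciferase; EC50 from median effect equation, ≥2 experiments.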

Read-outs that look alike come from different tables or passages of the source. Some results are limits rather than exact numbers.

Turning to `COc1cc(C(F)(F)F)ccc1CN1CCc2cc(-c3c(C)nc(C)c([C@H](OC(C)(C)C)C(=O)O)c3N3CCC(C)(C)CC3)ccc2C1` [Compound 109, (S)-2-(tert-butoxy)-2-(4-(4,4-dimethylpiperidin-1-yl)-5-(2-(2-methoxy-4-(trifluoromethyl)benzyl)-1,2,3,4-tetrahydroisoquinolin-6-yl)-2,6-dimethylpyridin-3-yl)acetic acid], the EC50 (read-out: Activity) is below 0.1 µM.
Regarding `Cc1nc(C)c([C@H](OC(C)(C)C)C(=O)O)c(N2CCC(C)(C)CC2)c1-c1ccc2c(c1)CCN(Cc1cccc(OC(F)(F)F)c1)C2` [Compound 110, (S)-2-(tert-butoxy)-2-(4-(4,4-dimethylpiperidin-1-yl)-2,6-dimethyl-5-(2-(3-(trifluoromethoxy)benzyl)-1,2,3,4-tetrahydroisoquinolin-6-yl)pyridin-3-yl)acetic acid], the EC50 runs as follows: (read-out: Activity) below 0.1 µM; (read-out: EC50 μM) 0.008 µM.
On to `Cc1nc(C)c([C@H](OC(C)(C)C)C(=O)O)c(N2CCC(C)(C)CC2)c1-c1ccc2c(c1)CCN(Cc1cc(F)cc(OC(F)(F)F)c1)C2` [Compound 111, (S)-2-(tert-butoxy)-2-(4-(4,4-dimethylpiperidin-1-yl)-5-(2-(3-fluoro-5-(trifluoromethoxy)benzyl)-1,2,3,4-tetrahydroisoquinolin-6-yl)-2,6-dimethylpyridin-3-yl)acetic acid], for which, under “read-out: Activity”, the EC50 is below 0.1 µM.
On to `COc1cc(CN2CCc3cc(-c4c(C)nc(C)c([C@H](OC(C)(C)C)C(=O)O)c4N4CCC(C)(C)CC4)ccc3C2)cc(C(F)(F)F)c1` [Compound 112, (S)-2-(tert-butoxy)-2-(4-(4,4-dimethylpiperidin-1-yl)-5-(2-(3-methoxy-5-(trifluoromethyl)benzyl)-1,2,3,4-tetrahydroisoquinolin-6-yl)-2,6-dimethylpyridin-3-yl)acetic acid], for which the EC50 (read-out: Activity) was below 0.1 µM.
On the same count and under the same terms, then `Cc1nc(C)c([C@H](OC(C)(C)C)C(=O)O)c(N2CCC(C)(C)CC2)c1-c1ccc2c(c1)CCN(Cc1cc(Cl)cc(OC(F)(F)F)c1)C2` [Compound 113, (S)-2-(tert-butoxy)-2-(5-(2-(3-chloro-5-(trifluoromethoxy)benzyl)-1,2,3,4-tetrahydroisoquinolin-6-yl)-4-(4,4-dimethylpiperidin-1-yl)-2,6-dimethylpyridin-3-yl)acetic acid], with below 0.1 µM.
Consider `Cc1nc(C)c([C@H](OC(C)(C)C)C(=O)O)c(N2CCC(C)(C)CC2)c1-c1ccc2c(c1)CCN(Cc1ccccc1OC(F)F)C2` [Compound 114, (S)-2-(tert-butoxy)-2-(5-(2-(2-(difluoromethoxy)benzyl)-1,2,3,4-tetrahydroisoquinolin-6-yl)-4-(4,4-dimethylpiperidin-1-yl)-2,6-dimethylpyridin-3-yl)acetic acid], for which, for the setting “read-out: Activity”, the EC50 was below 0.1 µM.
For the molecule `COc1cccc(F)c1CN1CCc2cc(-c3c(C)nc(C)c([C@H](OC(C)(C)C)C(=O)O)c3N3CCC(C)(C)CC3)ccc2C1` [Compound 115, (S)-2-(tert-butoxy)-2-(4-(4,4-dimethylpiperidin-1-yl)-5-(2-(2-fluoro-6-methoxybenzyl)-1,2,3,4-tetrahydroisoquinolin-6-yl)-2,6-dimethylpyridin-3-yl)acetic acid], the EC50 (read-out: Activity) was below 0.1 µM.
On to `COc1ccc(F)c(CN2CCc3cc(-c4c(C)nc(C)c([C@H](OC(C)(C)C)C(=O)O)c4N4CCC(C)(C)CC4)ccc3C2)c1` [Compound 116, (S)-2-(tert-butoxy)-2-(4-(4,4-dimethylpiperidin-1-yl)-5-(2-(2-fluoro-5-methoxybenzyl)-1,2,3,4-tetrahydroisoquinolin-6-yl)-2,6-dimethylpyridin-3-yl)acetic acid], for which the EC50 reads like this: (read-out: Activity) below 0.1 µM; (read-out: EC50 μM) 0.002 µM.
Consider `COc1cc(F)ccc1CN1CCc2cc(-c3c(C)nc(C)c([C@H](OC(C)(C)C)C(=O)O)c3N3CCC(C)(C)CC3)ccc2C1` [Compound 117, (S)-2-(tert-butoxy)-2-(4-(4,4-dimethylpiperidin-1-yl)-5-(2-(4-fluoro-2-methoxybenzyl)-1,2,3,4-tetrahydroisoquinolin-6-yl)-2,6-dimethylpyridin-3-yl)acetic acid], for which the EC50 (read-out: Activity) is below 0.1 µM.
Consider `Cc1nc(C)c([C@H](OC(C)(C)C)C(=O)O)c(N2CCC(C)(C)CC2)c1-c1ccc2c(c1)CCN(Cc1cccc(OC(F)F)c1)C2` [Compound 118, (S)-2-(tert-butoxy)-2-(5-(2-(3-(difluoromethoxy)benzyl)-1,2,3,4-tetrahydroisoquinolin-6-yl)-4-(4,4-dimethylpiperidin-1-yl)-2,6-dimethylpyridin-3-yl)acetic acid], for which the EC50 (read-out: Activity) was below 0.1 µM.
Still for that read-out and setting: then `COc1ccc(C)cc1CN1CCc2cc(-c3c(C)nc(C)c([C@H](OC(C)(C)C)C(=O)O)c3N3CCC(C)(C)CC3)ccc2C1` [Compound 119, (S)-2-(tert-butoxy)-2-(4-(4,4-dimethylpiperidin-1-yl)-5-(2-(2-methoxy-5-methylbenzyl)-1,2,3,4-tetrahydroisoquinolin-6-yl)-2,6-dimethylpyridin-3-yl)acetic acid], with below 0.1 µM; and `Cc1nc(C)c([C@H](OC(C)(C)C)C(=O)O)c(N2CCC(C)(C)CC2)c1-c1ccc2c(c1)CCN(Cc1ccc(F)c(OC(F)(F)F)c1)C2` [Compound 120, (S)-2-(tert-butoxy)-2-(4-(4,4-dimethylpiperidin-1-yl)-5-(2-(4-fluoro-3-(trifluoromethoxy)benzyl)-1,2,3,4-tetrahydroisoquinolin-6-yl)-2,6-dimethylpyridin-3-yl)acetic acid], with below 0.1 µM; and `Cc1nc(C)c([C@H](OC(C)(C)C)C(=O)O)c(N2CCC(C)(C)CC2)c1-c1ccc2c(c1)CCN(Cc1cccc(OC(F)(F)C(F)F)c1)C2` [Compound 121, (S)-2-(tert-butoxy)-2-(4-(4,4-dimethylpiperidin-1-yl)-2,6-dimethyl-5-(2-(3-(1,1,2,2-tetrafluoroethoxy)benzyl)-1,2,3,4-tetrahydroisoquinolin-6-yl)pyridin-3-yl)acetic acid], with below 0.1 µM.
Regarding `COc1cc(F)cc(CN2CCc3cc(-c4c(C)nc(C)c([C@H](OC(C)(C)C)C(=O)O)c4N4CCC(C)(C)CC4)ccc3C2)c1` [Compound 122, (S)-2-(tert-butoxy)-2-(4-(4,4-dimethylpiperidin-1-yl)-5-(2-(3-fluoro-5-methoxybenzyl)-1,2,3,4-tetrahydroisoquinolin-6-yl)-2,6-dimethylpyridin-3-yl)acetic acid], the EC50 (read-out: Activity) was below 0.1 µM.
Take `Cc1nc(C)c([C@H](OC(C)(C)C)C(=O)O)c(N2CCC(C)(C)CC2)c1-c1ccc2c(c1)CCN(Cc1ccccc1OC(F)(F)F)C2` [Compound 123, (S)-2-(tert-butoxy)-2-(4-(4,4-dimethylpiperidin-1-yl)-2,6-dimethyl-5-(2-(2-(trifluoromethoxy)benzyl)-1,2,3,4-tetrahydroisoquinolin-6-yl)pyridin-3-yl)acetic acid]: the EC50 runs as follows: (read-out: Activity) below 0.1 µM; (read-out: EC50 μM) 0.011 µM.
In the case of `COc1ccc(F)cc1CN1CCc2cc(-c3c(C)nc(C)c([C@H](OC(C)(C)C)C(=O)O)c3N3CCC(C)(C)CC3)ccc2C1` [Compound 124, (S)-2-(tert-butoxy)-2-(4-(4,4-dimethylpiperidin-1-yl)-5-(2-(5-fluoro-2-methoxybenzyl)-1,2,3,4-tetrahydroisoquinolin-6-yl)-2,6-dimethylpyridin-3-yl)acetic acid], the EC50 (read-out: Activity) is below 0.1 µM.
The same measure, in the same setting: then `Cc1nc(C)c([C@H](OC(C)(C)C)C(=O)O)c(N2CCC(C)(C)CC2)c1-c1ccc2c(c1)CCN(Cc1ccc(OC(F)(F)C(F)F)cc1)C2` [Compound 125, (S)-2-(tert-butoxy)-2-(4-(4,4-dimethylpiperidin-1-yl)-2,6-dimethyl-5-(2-(4-(1,1,2,2-tetrafluoroethoxy)benzyl)-1,2,3,4-tetrahydroisoquinolin-6-yl)pyridin-3-yl)acetic acid], with below 0.1 µM.
Regarding `CCOc1cc(CN2CCc3cc(-c4c(C)nc(C)c([C@H](OC(C)(C)C)C(=O)O)c4N4CCC(C)(C)CC4)ccc3C2)c(F)cc1F` [Compound 126, (S)-2-(tert-butoxy)-2-(4-(4,4-dimethylpiperidin-1-yl)-5-(2-(5-ethoxy-2,4-difluorobenzyl)-1,2,3,4-tetrahydroisoquinolin-6-yl)-2,6-dimethylpyridin-3-yl)acetic acid], where the note is “read-out: Activity”, the EC50 was below 0.1 µM.
The same measure, in the same setting: next, `Cc1nc(C)c([C@H](OC(C)(C)C)C(=O)O)c(N2CCC(C)(C)CC2)c1-c1ccc2c(c1)CCN(Cc1ccc(Cl)c(Cl)c1)C2` [Compound 127, (S)-2-(tert-butoxy)-2-(5-(2-(3,4-dichlorobenzyl)-1,2,3,4-tetrahydroisoquinolin-6-yl)-4-(4,4-dimethylpiperidin-1-yl)-2,6-dimethylpyridin-3-yl)acetic acid]: below 0.1 µM; `Cc1nc(C)c([C@H](OC(C)(C)C)C(=O)O)c(N2CCC(C)(C)CC2)c1-c1ccc2c(c1)CCN(Cc1c(Cl)cccc1Cl)C2` [Compound 128, (S)-2-(tert-butoxy)-2-(5-(2-(2,6-dichlorobenzyl)-1,2,3,4-tetrahydroisoquinolin-6-yl)-4-(4,4-dimethylpiperidin-1-yl)-2,6-dimethylpyridin-3-yl)acetic acid]: below 0.1 µM.
Regarding `COc1cccc(CN2CCc3cc(-c4c(C)nc(C)c([C@H](OC(C)(C)C)C(=O)O)c4N4CCC(C)(C)CC4)ccc3C2)c1Cl` [Compound 129, (S)-2-(tert-butoxy)-2-(5-(2-(2-chloro-3-methoxybenzyl)-1,2,3,4-tetrahydroisoquinolin-6-yl)-4-(4,4-dimethylpiperidin-1-yl)-2,6-dimethylpyridin-3-yl)acetic acid], the EC50 (read-out: Activity) was below 0.1 µM and the EC50 (read-out: EC50 μM) came to 0.003 µM.
As to `Cc1nc(C)c([C@H](OC(C)(C)C)C(=O)O)c(N2CCC(C)(C)CC2)c1-c1ccc2c(c1)CCN(Cc1cccc(Cl)c1F)C2` [Compound 130, (S)-2-(tert-butoxy)-2-(5-(2-(3-chloro-2-fluorobenzyl)-1,2,3,4-tetrahydroisoquinolin-6-yl)-4-(4,4-dimethylpiperidin-1-yl)-2,6-dimethylpyridin-3-yl)acetic acid], the EC50 (read-out: Activity) was below 0.1 µM.
